In DBAASP:
In brackets after ≈: the same amount, converted by molar mass. Several values for one entry are separate records, joined by “and”; a condition that tells them apart may be missing. Identical values can stand only once.

Assays:
Assay in all cases: ≥ marks a high value that may be exact or a test limit, other limits are often not marked, values filed in µg/mL are converted to µM
[1] = system: Acinetobacter baumannii ATCC 17978
[2] = system: Escherichia coli ATCC 8739
[3] = system: Staphylococcus aureus HNCMO 112011
[4] = system: Acinetobacter baumannii ATCC 19606
[5] = system: Escherichia coli BW25113 ΔsbmA
Escherichia coli BW25113 = system: Escherichia coli BW25113
Escherichia coli = system: Escherichia coli
[6] = system: Klebsiella pneumoniae ATCC 700603
[7] = system: Pseudomonas aeruginosa ATCC 27853
[8] = system: Staphylococcus aureus ATCC 25923
Escherichia coli K-12 = system: Escherichia coli K-12
[9] = system: Pseudomonas aeruginosa PA214
[10] = system: Pseudomonas aeruginosa PA287
[11] = system: Pseudomonas aeruginosa PAO1
Candida albicans = system: Candida albicans
Candida glabrata = system: Candida glabrata
Candida krusei ATCC 6258 = system: Candida krusei ATCC 6258
[12] = system: Candida parapsilosis ATCC 22019
Klebsiella pneumoniae = system: Klebsiella pneumoniae
Listeria monocytogenes = system: Listeria monocytogenes
Pasteurella multocida = system: Pasteurella multocida
[13] = system: Staphylococcus aureus ATCC 29213
Staphylococcus aureus MR = system: Staphylococcus aureus MR
[14] = system: Streptococcus agalactiae ATCC 12386
[15] = system: Streptococcus dysgalactiae
Streptococcus equi = system: Streptococcus equi
[16] = system: Streptococcus lutetiensis
Streptococcus mutans = system: Streptococcus mutans
Streptococcus oralis = system: Streptococcus oralis
[17] = system: Streptococcus pneumoniae ATCC 49619
[18] = system: Streptococcus pyogenes ATCC 19615
Streptococcus salivarius = system: Streptococcus salivarius
[19] = system: Acinetobacter baumannii CCARM 12035
[20] = system: Bacillus subtilis KCTC 3068
[21] = system: Enterococcus faecalis KCTC 2011
[22] = system: Escherichia coli CCARM 1229
[23] = system: Escherichia coli KCTC 1682
[24] = system: Pseudomonas aeruginosa CCARM 2095
[25] = system: Pseudomonas aeruginosa KCTC 1637
[26] = system: Salmonella typhimurium CCARM 8009
[27] = system: Salmonella typhimurium KCTC 1926
[28] = system: Staphylococcus aureus KCTC 1621

CC[C@H](C)[C@H](NC(=O)[C@H](CCCCN)NC(=O)[C@H](CCCCN)NC(=O)[C@H](C)NC(=O)[C@H](CC(C)C)NC(=O)[C@H](C)NC(=O)[C@H](C)NC(=O)[C@H](CC(C)C)NC(=O)[C@H](C)NC(=O)[C@H](CCCCN)NC(=O)[C@H](CCCN=C(N)N)NC(=O)[C@H](CCCN=C(N)N)NC(=O)[C@H](CCCN=C(N)N)NC(=O)[C@H](CS)NC(=O)[C@H](Cc1ccc(O)cc1)NC(=O)[C@H](CC(C)C)NC(=O)[C@@H]1CCCN1C(=O)[C@H](CCCN=C(N)N)NC(=O)[C@H](CCCN=C(N)N)NC(=O)[C@H](CS)NC(=O)[C@H](CCC(N)=O)NC(=O)[C@@H](N)CCC(N)=O)C(=O)N[C@@H](CC(C)C)C(=O)O [QQCRRPLYCRRRKALAALAKKIL]
MIC [1]: 3.1 µM (≈ 8.54 µg/mL) | MIC [2]: 3.1 µM (≈ 8.54 µg/mL) | MIC [3]: 3.1 µM (≈ 8.54 µg/mL)

CC[C@H](C)[C@H](NC(=O)[C@@H]1CCCN1C(=O)[C@H](Cc1c[nH]c2ccccc12)NC(=O)[C@H](CCCN=C(N)N)NC(=O)[C@H](Cc1ccccc1)NC(=O)[C@@H](N)CCCN=C(N)N)C(=O)N[C@@H](CCCN=C(N)N)C(=O)N[C@@H](CCCN=C(N)N)C(=O)N1CCC[C@H]1C(=O)N1CCC[C@H]1C(=O)N[C@H](C(=O)N[C@@H](CCCN=C(N)N)C(=O)N1CCC[C@H]1C(=O)N1CCC[C@H]1C(=O)N[C@@H](Cc1ccccc1)C(=O)N[C@@H](Cc1ccc(O)cc1)C(=O)N[C@@H](CCCN=C(N)N)C(=O)O)[C@@H](C)CC [RFRWPIRRPPIRPPFYR]
MIC [4]: 8 µM (≈ 18.5 µg/mL) | MIC [5]: 8 µM (≈ 18.5 µg/mL) | MIC (Escherichia coli BW25113): 4 µM (≈ 9.24 µg/mL) | MIC (Escherichia coli): 2.83 µM (≈ 6.54 µg/mL) | MIC [6]: 24 µM (≈ 55.5 µg/mL) | MIC [7]: 64 µM (≈ 148 µg/mL) | MIC [8]: > 64 µM

C[C@H](NC(=O)[C@H](C)NC(=O)[C@H](CCCCN)NC(=O)[C@H](Cc1ccccc1)NC(=O)[C@H](C)NC(=O)[C@H](CCCCN)NC(=O)[C@H](C)NC(=O)[C@H](Cc1c[nH]c2ccccc12)NC(=O)[C@H](C)NC(=O)[C@H](CCCCN)NC(=O)[C@H](C)NC(=O)[C@H](Cc1ccccc1)NC(=O)[C@H](C)NC(=O)[C@H](C)NC(=O)[C@H](CCCCN)NC(=O)[C@H](CCCCN)NC(=O)[C@@H](N)CCCCN)C(N)=O [KKKAAFAKAWAKAFKAA]
MIC (Escherichia coli K-12): 25 µM (≈ 45.9 µg/mL) | MIC [9]: ≥ 50 µM | MIC [10]: ≥ 50 µM | MIC [11]: 50 µM (≈ 91.8 µg/mL)

CC[C@H](C)[C@H](NC(=O)CNC(=O)[C@H](CC(=O)O)NC(=O)CNC(=O)[C@H](CC(C)C)NC(=O)[C@H](CCCN=C(N)N)NC(=O)[C@H](CCCCN)NC(=O)[C@H](CC(C)C)NC(=O)[C@H](CC(C)C)NC(=O)[C@H](CO)NC(=O)[C@H](CCCN=C(N)N)NC(=O)[C@H](CCCN=C(N)N)NC(=O)[C@H](CCCCN)NC(=O)[C@@H](NC(=O)[C@H](CCCCN)NC(=O)[C@@H](N)CO)[C@@H](C)O)C(=O)N[C@@H](CCCN=C(N)N)C(=O)NCC(=O)N[C@@H](Cc1ccccc1)C(=O)N[C@@H](Cc1c[nH]c2ccccc12)C(=O)N[C@@H](CC(N)=O)C(=O)NCC(=O)N[C@@H](Cc1ccccc1)C(=O)N[C@@H](CCCN=C(N)N)C(=O)NCC(=O)N[C@@H](CCCN=C(N)N)C(=O)N[C@@H](CCCCN)C(=O)O [SKTKRRSLLKRLGDGIRGFWNGFRGRK]
MIC (Candida albicans): > 20.1 µM | MIC (Candida glabrata): 20.1 µM (≈ 64 µg/mL) | MIC (Candida krusei ATCC 6258): 20.1 µM (≈ 64 µg/mL) | MIC [12]: 10 µM (≈ 32 µg/mL) | MIC (Klebsiella pneumoniae): > 20.1 µM | MIC (Listeria monocytogenes): 20.1 µM (≈ 64 µg/mL) | MIC (Pasteurella multocida): 20.1 µM (≈ 64 µg/mL) | MIC [7]: > 20.1 µM | MIC [13]: 10 µM and 6.27 µM | MIC (Staphylococcus aureus MR): 10 µM (≈ 32 µg/mL) | MIC [14]: 20.1 µM (≈ 64 µg/mL) | MIC [15]: 20.1 µM (≈ 64 µg/mL) | MIC (Streptococcus equi): 20.1 µM (≈ 64 µg/mL) | MIC [16]: 20.1 µM (≈ 64 µg/mL) | MIC (Streptococcus mutans): 20.1 µM (≈ 64 µg/mL) | MIC (Streptococcus oralis): 20.1 µM (≈ 64 µg/mL) | MIC [17]: 20.1 µM (≈ 64 µg/mL) | MIC [18]: 20.1 µM (≈ 64 µg/mL) | MIC (Streptococcus salivarius): 10 µM (≈ 32 µg/mL)

CC[C@H](C)[C@H](NC(=O)CNC(=O)[C@H](CC(=O)O)NC(=O)[C@H](CCCN=C(N)N)NC(=O)[C@@H](NC(=O)[C@H](CC(N)=O)NC(=O)[C@H](CCCN=C(N)N)NC(=O)CNC(=O)[C@@H](NC(=O)[C@H](CCCCN)NC(=O)[C@H](CCC(=O)O)NC(=O)[C@@H](NC(=O)[C@H](CCCCN)NC(=O)[C@H](CCCCN)NC(=O)[C@H](C)NC(=O)[C@@H](NC(=O)[C@H](CCCCN)NC(=O)[C@H](C)NC(=O)[C@@H](N)CCCN=C(N)N)[C@@H](C)CC)[C@@H](C)CC)C(C)C)C(C)C)C(=O)N[C@H](C(=O)N[C@@H](CCCCN)C(=O)N[C@@H](C)C(N)=O)[C@@H](C)CC [RAKIAKKIEKVGRNVRDGIIKA]
MIC [19]: ≥ 32 µM | MIC [20]: ≥ 128 µM | MIC [21]: ≥ 128 µM | MIC [22]: 4 µM (≈ 9.85 µg/mL) | MIC [23]: 2 µM (≈ 4.93 µg/mL) | MIC [24]: 16 µM (≈ 39.4 µg/mL) | MIC [25]: 8 µM (≈ 19.7 µg/mL) | MIC [26]: 8 µM (≈ 19.7 µg/mL) | MIC [27]: 4 µM (≈ 9.85 µg/mL) | MIC [28]: ≥ 128 µM
